{
  "source": "patent US9724355B2",
  "about": "“Fulvestrant compositions and methods of use” (SHIMODA BIOTECH (PTY) LTD, priority 2010, dated 2017)",
  "origin": "cited, not measured here",
  "data": [
    {"conditions": "cited from earlier work", "units": {"Water Solubility (25° C.)": "mg/mL"}, "values": [
      {"compound": "Methyl beta-cyclodextrin", "Water Solubility (25° C.)": ">750"},
      {"compound": "Sulfobutylether beta-cyclodextrin", "Water Solubility (25° C.)": ">500"},
      {"compound": "CC(O)COC[C@H]1O[C@@H]2O[C@H]3[C@H](O)[C@@H](O)[C@@H](O[C@H]4[C@H](O)[C@@H](O)[C@@H](O[C@H]5[C@H](O)[C@@H](O)[C@@H](O[C@H]6[C@H](O)[C@@H](O)[C@@H](O[C@H]7[C@H](O)[C@@H](O)[C@@H](O[C@H]8[C@H](O)[C@@H](O)[C@@H](O[C@H]1[C@H](O)[C@H]2O)O[C@@H]8COCC(C)O)O[C@@H]7COCC(C)O)O[C@@H]6COCC(C)O)O[C@@H]5COCC(C)O)O[C@@H]4COCC(C)O)O[C@@H]3COCC(C)O", "note": "(stereo partly drawn) [Hydroxypropyl beta-cyclodextrin]", "Water Solubility (25° C.)": ">750"}
    ]}
  ]
}
